In one experiment the target is sLFA-1/ICAM-1 (Homo sapiens, UniProt P05107+P20701, DEL701-769). As to the kind of experiment: sLFA-1/ICAM-1 ELISA. To be noted: sLFA-1 coated plates, 5dICAM-Fc binding, read-out: LFA/ICAM (IC50). On the procedure: (§1) sLFA-1/ICAM-1 ELISA and Mac-1/ICAM-1 ELISA
(§2) Plates were coated with either 50 μl/well of 2.0 ug/ml solution of sLFA-1 or Mac-1 receptor in divalent cation buffer (1 mM MnCI2, 0.14M NaCl, 20 mM HEPES pH 7.2) at 4° C. overnight. Two hundred fifty μl of blocking buffer (1% BSA in divalent cation buffer) was added to each well 1 hour at 37° C. Plates were washed 3 times with wash buffer (TBS/0.05% Tween-20/1 mM MnCl2). The compound to be tested was solubilized in DMSO. A series of 1:3 dilutions were performed to achieve a concentration range of 0.45 nM-3 uM. Fifty μl of binding buffer (0.5% BSA in divalent cation buffer)/1% DMSO and 50 μl of the solutions to be tested were added to the appropriate wells and incubated for 1 hour. Fifty μl of 5dICAM-Fc (27 ng/ml) was added to the appropriate wells and 50 μl binding buffer was added to non-specific binding wells and incubated for 2 hours and washed. One hundred μl of 1:4000 HRP-goat anti-huIgG was added to each well and incubated for 1 hour and washed. One hundred μl of 1:1 TMB solution was added to each well and developed for 20 min at room temperature. Color development was stopped by adding 100 μl H3PO4 to each well. Absorbance was measured at 450 nm.

Another experiment has as its target Mac-1/ICAM-1 (Homo sapiens, UniProt P05107+P11215). As to the kind of experiment: Mac-1/ICAM-1 ELISA. To be noted: Mac-1 receptor coated plates, 5dICAM-Fc binding. On the procedure: as §1, §2

Drawing on patent US8404859B2, “Thiazole and thiophene compounds” (Hoffmann-La Roche Inc., priority 2011, dated 2013), this text covers IC50 for one compound.

Chain of Mac-1/ICAM-1 (P05107 23-769, other chains not shown): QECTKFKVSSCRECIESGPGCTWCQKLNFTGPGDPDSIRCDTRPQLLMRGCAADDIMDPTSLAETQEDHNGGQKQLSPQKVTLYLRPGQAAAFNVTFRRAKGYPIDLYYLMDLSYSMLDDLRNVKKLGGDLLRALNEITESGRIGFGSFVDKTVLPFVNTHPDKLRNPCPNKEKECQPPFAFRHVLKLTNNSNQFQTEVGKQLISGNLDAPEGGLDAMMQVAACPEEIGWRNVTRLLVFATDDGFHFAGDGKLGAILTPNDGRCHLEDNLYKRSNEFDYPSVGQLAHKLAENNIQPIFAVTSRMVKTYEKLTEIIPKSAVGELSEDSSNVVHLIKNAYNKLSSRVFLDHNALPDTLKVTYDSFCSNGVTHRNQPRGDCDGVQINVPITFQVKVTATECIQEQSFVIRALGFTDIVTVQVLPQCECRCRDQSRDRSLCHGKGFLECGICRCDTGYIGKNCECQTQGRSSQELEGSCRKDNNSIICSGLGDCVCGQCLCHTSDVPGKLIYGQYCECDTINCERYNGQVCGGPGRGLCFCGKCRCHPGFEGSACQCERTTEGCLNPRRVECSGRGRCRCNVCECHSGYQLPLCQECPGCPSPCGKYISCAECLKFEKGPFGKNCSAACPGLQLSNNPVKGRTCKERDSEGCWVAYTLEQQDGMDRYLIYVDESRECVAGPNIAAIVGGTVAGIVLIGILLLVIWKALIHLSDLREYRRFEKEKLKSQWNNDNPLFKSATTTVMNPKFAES
Chain of sLFA-1/ICAM-1 (P20701 26-1090 limits assumed, stated change not applied): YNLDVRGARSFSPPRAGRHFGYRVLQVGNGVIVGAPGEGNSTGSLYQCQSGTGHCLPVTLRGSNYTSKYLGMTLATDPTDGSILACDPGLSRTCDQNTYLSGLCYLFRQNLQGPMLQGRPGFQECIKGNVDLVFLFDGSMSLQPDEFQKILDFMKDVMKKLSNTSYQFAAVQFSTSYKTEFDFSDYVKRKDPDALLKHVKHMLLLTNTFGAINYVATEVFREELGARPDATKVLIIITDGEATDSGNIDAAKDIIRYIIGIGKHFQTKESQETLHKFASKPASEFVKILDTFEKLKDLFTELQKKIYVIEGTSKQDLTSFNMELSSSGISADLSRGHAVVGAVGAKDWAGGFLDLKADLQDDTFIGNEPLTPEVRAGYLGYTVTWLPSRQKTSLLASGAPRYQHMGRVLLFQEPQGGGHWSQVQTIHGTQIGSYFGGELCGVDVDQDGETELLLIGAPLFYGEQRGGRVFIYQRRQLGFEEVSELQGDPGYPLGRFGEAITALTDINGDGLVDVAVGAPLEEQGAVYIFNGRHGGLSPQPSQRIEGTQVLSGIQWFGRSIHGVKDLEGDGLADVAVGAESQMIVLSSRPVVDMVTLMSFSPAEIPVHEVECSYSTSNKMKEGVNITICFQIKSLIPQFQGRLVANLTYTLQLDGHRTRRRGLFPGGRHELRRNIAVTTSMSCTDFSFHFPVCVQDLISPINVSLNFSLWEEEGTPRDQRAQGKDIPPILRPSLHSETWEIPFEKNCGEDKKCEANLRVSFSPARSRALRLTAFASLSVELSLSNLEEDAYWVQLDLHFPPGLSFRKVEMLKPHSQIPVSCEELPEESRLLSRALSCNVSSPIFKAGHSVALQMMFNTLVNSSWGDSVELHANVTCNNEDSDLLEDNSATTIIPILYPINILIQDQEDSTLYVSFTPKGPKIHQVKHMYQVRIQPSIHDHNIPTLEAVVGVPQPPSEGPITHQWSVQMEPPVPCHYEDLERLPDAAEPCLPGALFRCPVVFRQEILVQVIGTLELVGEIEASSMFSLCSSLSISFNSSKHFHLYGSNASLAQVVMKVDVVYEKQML
Chain of sLFA-1/ICAM-1 (P05107 23-700 limits assumed, stated change not applied): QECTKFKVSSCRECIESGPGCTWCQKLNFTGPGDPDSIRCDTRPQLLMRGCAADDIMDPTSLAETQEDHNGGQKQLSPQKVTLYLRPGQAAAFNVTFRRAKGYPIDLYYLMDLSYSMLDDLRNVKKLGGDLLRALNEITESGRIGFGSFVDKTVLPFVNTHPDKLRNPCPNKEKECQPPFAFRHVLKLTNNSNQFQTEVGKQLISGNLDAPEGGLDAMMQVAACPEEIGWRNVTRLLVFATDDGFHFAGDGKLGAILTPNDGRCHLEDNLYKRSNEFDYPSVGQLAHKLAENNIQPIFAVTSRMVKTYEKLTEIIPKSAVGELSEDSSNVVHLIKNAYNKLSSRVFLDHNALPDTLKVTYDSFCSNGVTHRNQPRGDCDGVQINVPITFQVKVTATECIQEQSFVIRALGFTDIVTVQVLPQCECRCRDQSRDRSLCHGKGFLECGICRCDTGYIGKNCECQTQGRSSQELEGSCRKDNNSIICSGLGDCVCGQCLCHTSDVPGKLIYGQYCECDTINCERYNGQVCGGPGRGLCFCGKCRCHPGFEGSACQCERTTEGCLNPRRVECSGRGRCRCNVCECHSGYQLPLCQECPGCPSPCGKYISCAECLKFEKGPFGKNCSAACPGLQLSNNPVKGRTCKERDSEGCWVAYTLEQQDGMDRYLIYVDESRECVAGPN

Take `Cc1nc(NC(=O)CCc2cccc(O)c2)sc1C(=O)N[C@@H](CNC(=O)c1cc(O)cc(O)c1)C(=O)O` [Example 10, (S)-3-(3,5-Dihydroxy-benzoylamino)-2-({2-[3-(3-hydroxy-phenyl)-propionylamino]-4-methyl-thiazole-5-carbonyl}-amino)-propionic acid]: the IC50 on sLFA-1/ICAM-1 was found to be 0.044 µM; on Mac-1/ICAM-1, 0.02 µM.
